target: T1, Recombinant HDAC9 isoform 4 (Homo sapiens, UniProt Q9UKV0); test: Histone Deacetylase 9 (HDAC9) inhibition assay, fluorogenic substrate; type: biochemical; details: mean of a minimum of 2 experiments; 11 point 3x dilution series from 100 uM; substrate 4.5 uM; read-out: mean pIC50, inhibition of HDAC9 (converted)
T1 construct: purchased BPS Bioscience
T1 sequence (Q9UKV0 1-1066 isoform Q9UKV0-5): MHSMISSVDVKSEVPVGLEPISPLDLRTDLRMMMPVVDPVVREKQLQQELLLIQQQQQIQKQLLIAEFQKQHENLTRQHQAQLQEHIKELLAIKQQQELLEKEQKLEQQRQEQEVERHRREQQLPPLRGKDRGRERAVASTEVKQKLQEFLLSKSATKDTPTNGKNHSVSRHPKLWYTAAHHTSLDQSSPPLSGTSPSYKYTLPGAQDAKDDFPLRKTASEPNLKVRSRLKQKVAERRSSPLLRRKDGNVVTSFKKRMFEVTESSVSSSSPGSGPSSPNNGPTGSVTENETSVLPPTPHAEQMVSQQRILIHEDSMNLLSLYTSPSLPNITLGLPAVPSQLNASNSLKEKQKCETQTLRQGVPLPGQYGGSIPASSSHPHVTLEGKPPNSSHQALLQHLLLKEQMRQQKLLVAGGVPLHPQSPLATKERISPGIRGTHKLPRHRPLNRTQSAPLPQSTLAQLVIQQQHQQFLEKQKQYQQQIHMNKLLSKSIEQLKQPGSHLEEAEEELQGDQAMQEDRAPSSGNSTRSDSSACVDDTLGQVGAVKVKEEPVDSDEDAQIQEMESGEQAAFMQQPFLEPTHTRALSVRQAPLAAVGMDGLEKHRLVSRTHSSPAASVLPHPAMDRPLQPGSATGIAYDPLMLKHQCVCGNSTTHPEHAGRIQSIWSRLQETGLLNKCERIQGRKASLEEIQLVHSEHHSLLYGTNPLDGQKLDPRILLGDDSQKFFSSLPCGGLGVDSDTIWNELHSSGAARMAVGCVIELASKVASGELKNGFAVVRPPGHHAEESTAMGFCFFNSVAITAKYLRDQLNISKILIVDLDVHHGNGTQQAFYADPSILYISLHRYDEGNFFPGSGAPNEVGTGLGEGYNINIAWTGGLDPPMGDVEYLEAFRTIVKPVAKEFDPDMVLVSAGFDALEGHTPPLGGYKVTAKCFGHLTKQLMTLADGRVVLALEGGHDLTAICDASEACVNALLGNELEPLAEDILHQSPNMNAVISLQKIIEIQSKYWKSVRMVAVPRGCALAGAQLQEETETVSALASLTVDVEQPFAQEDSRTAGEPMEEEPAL

IC50, < 1 µM:
O=C(NCC1(c2nc(-c3ccncc3)cs2)CCOCC1)c1cccc(-c2noc(C(F)(F)F)n2)c1 [Example 21, N-((4-(4-(Pyridin-4-yl)thiazol-2-yl)tetrahydro-2H-pyran-4-yl)methyl)-3-(5-(trifluoromethyl)-1,2,4-oxadiazol-3-yl)benzamide]
O=S(=O)(NCC1(c2nc(-c3ccccc3)cs2)CCOCC1)c1cccc(-c2noc(C(F)(F)F)n2)c1 [Example 32, N-((4-(4-Phenylthiazol-2-yl)tetrahydro-2H-pyran-4-yl)methyl)-3-(5-(trifluoromethyl)-1,2,4-oxadiazol-3-yl)benzenesulfonamide]
O=C(NCC1(c2cccc(-c3ccccc3)c2)CCOCC1)c1cncc(-c2noc(C(F)(F)F)n2)c1 [Example 78, N-((4-([1,1′-Biphenyl]-3-yl)tetrahydro-2H-pyran-4-yl)methyl)-5-(5-(trifluoromethyl)-1,2,4-oxadiazol-3-yl)nicotinamide]
O=C(NCCC(O)c1coc(-c2ccc(F)cc2)n1)c1cccc(-c2noc(C(F)(F)F)n2)c1 (centres unmarked) [Example 110, N-(3-(2-(4-Fluorophenyl)oxazol-4-yl)-3-hydroxypropyl)-3-(5-(trifluoromethyl)-1,2,4-oxadiazol-3-yl)benzamide]
O=C(NCCc1nc(-c2ccccc2)no1)c1cccc(-c2noc(C(F)(F)F)n2)c1 [Example 132, N-(2-(3-Phenyl-1,2,4-oxadiazol-5-yl)ethyl)-3-(5-(trifluoromethyl)-1,2,4-oxadiazol-3-yl)benzamide]
